Values after ≈ are worked out from the molar mass of the structure shown. Read-outs that look alike come from different tables or passages of the source. Positions of bridges follow the written chain, without caps; N, C: chain ends. Non-standard residues stand in square brackets, D forms with d. Residues, ends and D or L forms follow the SMILES beside them. Lys(N3) = [N-]=[N+]=NCCCC[C@H](N)C(=O)O; R8 = C=CCCCCCC[C@@](C)(N)C(=O)O; Cba = N[C@@H](CC1CCC1)C(=O)O; S5 = C=CCCC[C@](C)(N)C(=O)O; βAla = NCCC(=O)O
Experiments:
[1] = Lactate dehydrogenase (LDH) release assay; assay type: cell-based
In short: (§1)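 Geometric means of at least three independent biological runs are given for LDH release measured in HCT116 cells stably expressing a p53-driven β-lactamase reporter. Plating density was 8000 cells/well; DMSO in wells was 0.5%.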

[2] = system: HCT116 cells; assay: Lactate dehydrogenase (LDH) release assay; assay type: cell-based
In short: as §1

[3] = Nanoclick permeability assay
Text: Further, there have been several literature reports[18]–[20] that highlight that the combination of hydrophobic character and positive charge can result in mast cell degranulation (MCD), a potentially fatal condition[18]–[20]. […] The NanoClick assay[22] determines permeability of azide-labeled peptides by combining intracellular copper-free click chemistry with NanoBRET technology. Specifically, if an azido-peptide achieves cytosolic exposure, it will react with a cyclooctyne-decorated Halotag construct that is fused with nanoluciferase. This reaction blocks the click labelling of a subsequently added azido-labeled acceptor dye, thus decreasing the NanoBRET signal in a manner that is target-binding agnostic.
This assay was previously described in detail. The assay was performed in 384-well white assay plates (PerkinElmer CUSG03874) using assay-ready frozen cells that had been transiently transfected with the NanoLuc-HaloTag vector that were thawed at plated in complete media at a density of 6000 cells/ well and incubated at 37 °C 5% CO2 overnight. DIBAC-CA was diluted in assay buffer (OptiMem without phenol red + 1% FBS) and added to cells at a final concentration of 3 μM and incubated at 37 °C 5% CO2 for 1 h. Cells were subsequently centrifuged using a BlueWasher instrument (Blue Cat Bio) to remove the DIBAC-CA solution and washed two times with HBSS (Ca2 + , Mg2 + ). A volume of 30 μL of assay buffer was added back to cell plates. Peptides were serially diluted 4-fold in DMSO with a Hamilton Star apparatus and then delivered into assay plates with an acoustic liquid handler Labcyte ECHO (300 nl, 1% DMSO in-well concentration). After incubating cells with peptide for the desired time (4 or 18 h), the HaloTag ligand, NanoBret618-azide, was added to each well at a final concentration of 10 μM. […] Following addition of NanoBRET Nano-Glo Substrate, donor emission (450 nm) and acceptor emission (610 nm) were measured using an Envision instrument (PerkinElmer).

[4] = Solubility assay (kinetic solubility, PBS pH 7); assay type: physicochemical; details: pH 7, PBS; for solubility kinetic: pH 7, aqueous buffer, kinetic from dmso stock, read-out: Solubility
Description: The standard reference solutions were prepared by diluting the 10 mM stock in 10:80:10 solution of acetonitrile:methanol:DMSO to 100 µM.
The solubility value is calculated by the following equation:
Solubility [µM] = (Peak area of sample/ Peak area of standard) (Standard concentration)

[5] = Experimental LogD (partition coefficient); details: for logD: not stated, Partition Coeff LogD
[6] = Nanoclick permeability assay EC50

SMILES	solubility kinetic [4] [µM]	logD [5]	EC50 ([1]; LDH: Cytotoxicity assay EC50) [nM]	cell entry EC50 [3, 6] [nM]	further results
CC(=O)N[C@@H](CCCCN=[N+]=[N-])C(=O)NCCC(=O)N[C@@H](CC(C)C)C(=O)N[C@H](C(=O)N[C@@H](Cc1ccccc1)C(=O)N[C@]1(C)CCCCCCC=CCCC[C@@](C)(C(=O)N[C@@H](C)C(=O)N[C@@H](C)C(=O)N[C@@H](CCC(=O)O)C(=O)N[C@@H](C)C(=O)N[C@@H](C)C(=O)N[C@H](C)C(N)=O)NC(=O)[C@H](CC2CCC2)NC(=O)[C@H](CCC(N)=O)NC(=O)[C@H](C)NC(=O)[C@H](Cc2c[nH]c3ccccc23)NC(=O)[C@H](Cc2ccc(O)cc2)NC(=O)[C@H](CCC(=O)O)NC1=O)[C@@H](C)O [MP-833] (Ac-[Lys(N3)][βAla]LTF[R8]EYWAQ[Cba][S5]AAEAA[dA]-NH2; staple 6-13)	154 (≈ 343 µg/mL)	–	–	–	EC50 ([1]; 0% FBS 4Hr, read-out: LDH: Cytotoxicity assay EC50): > 50700 nM; EC50 ([1]; 10% FBS 16Hr, read-out: LDH: Cytotoxicity assay EC50): > 50700 nM; LDH: Cytotoxicity assay % Effect ([2]; 0% FBS 4Hr): 3.813%; LDH: Cytotoxicity assay % Effect ([2]; 10% FBS 16Hr): 10.68%; cell entry EC50 [3]: 1020 nM
CC(C)C[C@@H]1NC(=O)[C@H](C)NC(=O)[C@H](Cc2c[nH]c3ccccc23)NC(=O)[C@H](Cc2ccc(O)cc2)NC(=O)[C@H](CCC(=O)O)NC(=O)[C@](C)(NC(=O)[C@H](Cc2ccccc2)NC(=O)[C@H](CO)NC(=O)[C@@H](NC(=O)[C@H](CO)NC(=O)CNC(=O)[C@H](CO)NC(=O)[C@H](CCCCN=[N+]=[N-])NC(=O)[C@H](CCC(=O)O)NC(=O)[C@H](CCC(=O)O)NC(=O)[C@@H](N)CCC(=O)O)[C@@H](C)O)CCCCCCC=CCCC[C@@](C)(C(=O)N[C@@H](CCC(=O)O)C(=O)N[C@@H](CC(N)=O)C(N)=O)NC(=O)[C@H](CC(C)C)NC1=O [MP-949] (H-EEE[Lys(N3)]SGSTSF[R8]EYWALL[S5]EN-NH2; staple 11-18)	104 (≈ 253 µg/mL)	1.66	> 50000	4350	–
CC(=O)N[C@@H](CCCCN=[N+]=[N-])C(=O)NCCC(=O)N[C@@H](CC(C)C)C(=O)N[C@H](C(=O)N[C@@H](Cc1ccccc1)C(=O)N[C@]1(C)CCCCCCC=CCCC[C@@](C)(C(=O)N2CCC[C@H]2C(=O)N2CCC[C@H]2C(=O)N2CCC[C@H]2C(=O)N2CCC[C@H]2C(=O)N2CCC[C@H]2C(=O)N2CCC[C@H]2C(N)=O)NC(=O)[C@H](CC2CCC2)NC(=O)[C@H](CCC(N)=O)NC(=O)[C@H](C)NC(=O)[C@H](Cc2c[nH]c3ccccc23)NC(=O)[C@H](Cc2ccc(O)cc2)NC(=O)[C@H](CCC(=O)O)NC1=O)[C@@H](C)O [MP-093]	156 (≈ 363 µg/mL)	2.28	> 50700	1380	–
CC(=O)N[C@@H](CCC(=O)O)C(=O)N[C@@H](CCC(=O)O)C(=O)N[C@@H](CCC(=O)O)C(=O)N[C@@H](CCCCN=[N+]=[N-])C(=O)NCCC(=O)N[C@@H](CC(C)C)C(=O)N[C@H](C(=O)N[C@@H](Cc1ccccc1)C(=O)N[C@]1(C)CCCCCCC=CCCC[C@@](C)(C(=O)N[C@@H](CCC(=O)O)C(=O)N[C@@H](CC(N)=O)C(=O)N[C@@H](Cc2ccccc2)C(N)=O)NC(=O)[C@H](CC2CCC2)NC(=O)[C@H](CCC(N)=O)NC(=O)[C@H](C)NC(=O)[C@H](Cc2c[nH]c3ccccc23)NC(=O)[C@H](Cc2ccc(O)cc2)NC(=O)[C@H](CCC(=O)O)NC1=O)[C@@H](C)O [MP-763] (Ac-EEE[Lys(N3)][βAla]LTF[R8]EYWAQ[Cba][S5]ENF-NH2; staple 9-16)	156 (≈ 393 µg/mL)	1.86	–	1140	EC50 ([1]; LDH: Cytotoxicity assay: EC50): > 50700 nM
CC[C@H](C)[C@H](NC(=O)[C@H](CC(C)C)NC(=O)[C@H](Cc1ccccc1)NC(=O)[C@@H](N)Cc1ccccc1)C(=O)N1CCC[C@H]1C(=O)N[C@@H](CCCCN)C(=O)NCC(=O)N[C@@H](CCCNC(=N)N)C(=O)N[C@@H](CCCNC(=N)N)C(=O)N[C@@H](CCCNC(=N)N)C(=O)N[C@@H](CCCNC(=N)N)C(=O)N[C@@H](CCCNC(=N)N)C(=O)N[C@@H](CCCNC(=N)N)C(=O)N[C@@H](CCCNC(=N)N)C(=O)N[C@@H](CCCNC(=N)N)C(=O)N[C@@H](CCCNC(=N)N)C(=O)N[C@@H](CCCCN=[N+]=[N-])C(=O)NCCC(=O)N[C@@H](CC(C)C)C(=O)N[C@H](C(=O)N[C@@H](Cc1ccccc1)C(=O)N[C@]1(C)CCCCCCC=CCCC[C@@](C)(C(=O)N[C@@H](CO)C(=O)N[C@@H](C)C(=O)N[C@@H](C)C(N)=O)NC(=O)[C@H](CC2CCC2)NC(=O)[C@H](CCC(N)=O)NC(=O)[C@H](C)NC(=O)[C@H](Cc2c[nH]c3ccccc23)NC(=O)[C@H](Cc2ccc(O)cc2)NC(=O)[C@H](CCC(=O)O)NC1=O)[C@@H](C)O [MP-656] (H-FFLIPKGRRRRRRRRR[Lys(N3)][βAla]LTF[R8]EYWAQ[Cba][S5]SAA-NH2; staple 22-29)	–	–	–	544	Partition Coeff LogD [5]: Poorly Behaved; Solubility [4]: Poorly Behaved
CC(C)C[C@@H]1NC(=O)[C@H](C)NC(=O)[C@H](Cc2c[nH]c3ccccc23)NC(=O)[C@H](Cc2ccc(O)cc2)NC(=O)[C@H](CCC(=O)O)NC(=O)[C@](C)(NC(=O)[C@H](Cc2ccccc2)NC(=O)[C@H](CO)NC(=O)[C@@H](NC(=O)[C@H](CO)NC(=O)CNC(=O)[C@H](CO)NC(=O)[C@@H](N)CCCCN=[N+]=[N-])[C@@H](C)O)CCCCCCC=CCCC[C@@](C)(C(=O)N[C@@H](CCC(=O)O)C(=O)N[C@@H](CCC(=O)O)C(=O)N[C@@H](CCC(=O)O)C(N)=O)NC(=O)[C@H](CC(C)C)NC1=O [MP-951] (H-[Lys(N3)]SGSTSF[R8]EYWALL[S5]EEE-NH2; staple 8-15)	119 (≈ 261 µg/mL)	1.94	> 50000	2150	–
C[C@H](NC(=O)[C@H](C)NC(=O)[C@H](C)NC(=O)[C@]1(C)CCCC=CCCCCCC[C@@](C)(NC(=O)[C@H](Cc2ccccc2)NC(=O)[C@@H](NC(=O)[C@H](C)NC(=O)CCNC(=O)[C@H](CCCCN=[N+]=[N-])NC(=O)[C@H](C)NC(=O)[C@H](C)NC(=O)[C@H](CCCNC(=N)N)NC(=O)[C@H](CCCNC(=N)N)NC(=O)[C@H](CO)NC(=O)[C@H](CCCNC(=N)N)NC(=O)[C@H](CO)NC(=O)[C@H](CCCNC(=N)N)NC(=O)CN)[C@@H](C)O)C(=O)N[C@@H](C)C(=O)N[C@@H](Cc2ccc(O)cc2)C(=O)N[C@@H](Cc2c[nH]c3ccccc23)C(=O)N[C@@H](C)C(=O)N[C@@H](C)C(=O)N[C@@H](CC2CCC2)C(=O)N1)C(N)=O [MP-878] (H-GRSRSRRAA[Lys(N3)][βAla]ATF[R8]AYWAA[Cba][S5]AAA-NH2; staple 15-22)	–	2.81	–	2100	Solubility [4]: Poorly Behaved
CC(=O)N[C@@H](CCC(=O)O)C(=O)N[C@@H](CCC(=O)O)C(=O)N[C@@H](CCCCN=[N+]=[N-])C(=O)NCCCCCC(=O)N[C@H](C(=O)N[C@@H](CO)C(=O)N[C@@H](Cc1ccccc1)C(=O)N[C@]1(C)CCCCCCC=CCCC[C@@](C)(C(N)=O)NC(=O)[C@H](CC(C)C)NC(=O)[C@H](CC(C)C)NC(=O)[C@H](C)NC(=O)[C@H](Cc2c[nH]c3ccccc23)NC(=O)[C@H](Cc2ccc(O)cc2)NC(=O)[C@H](CCC(=O)O)NC1=O)[C@@H](C)O [MP-661]	27 (≈ 53.7 µg/mL)	2.02	> 50000	546	–
CC(C)C[C@@H]1NC(=O)[C@H](C)NC(=O)[C@H](Cc2c[nH]c3ccccc23)NC(=O)[C@H](Cc2ccc(O)cc2)NC(=O)[C@H](CCC(=O)O)NC(=O)[C@](C)(NC(=O)[C@H](Cc2ccccc2)NC(=O)[C@H](CO)NC(=O)[C@@H](NC(=O)[C@H](CO)NC(=O)CNC(=O)[C@H](CO)NC(=O)[C@H](CCCCN=[N+]=[N-])NC(=O)[C@H](CCC(=O)O)NC(=O)[C@H](CCC(=O)O)NC(=O)[C@@H](N)CCC(=O)O)[C@@H](C)O)CCCCCCC=CCCC[C@@](C)(C(N)=O)NC(=O)[C@H](CC(C)C)NC1=O [MP-948] (H-EEE[Lys(N3)]SGSTSF[R8]EYWALL[S5]-NH2; staple 11-18)	112 (≈ 245 µg/mL)	1.48	> 50000	> 10000	–

Reference: PMC10786919, “Design-rules for stapled peptides with in vivo activity and their application to Mdm2/X antagonists” (Nature Communications, 2024)
